We go through 2 sequences from patent publication US7323541B2, “Polypeptide DNA thereof and use of the same” (Takeda Pharmaceutical Company Limited, priority 2001, dated 2008).

Holding throughout (type): cell-based
Test [1] addresses T1, TGR23-1 expressing CHO cells (Homo sapiens, UniProt Q6W5P4).
T1 construct: the clones having the cDNA of TGR23-1, which is contained in pTB2173, were selected; expressed in transfected cells; host or cells: hamster CHO/dhfr- cells, vector pAKKO-111H (pAKKO-TGR23-1), clones No. 49 and No. 52
T1 sequence (Q6W5P4 1-371): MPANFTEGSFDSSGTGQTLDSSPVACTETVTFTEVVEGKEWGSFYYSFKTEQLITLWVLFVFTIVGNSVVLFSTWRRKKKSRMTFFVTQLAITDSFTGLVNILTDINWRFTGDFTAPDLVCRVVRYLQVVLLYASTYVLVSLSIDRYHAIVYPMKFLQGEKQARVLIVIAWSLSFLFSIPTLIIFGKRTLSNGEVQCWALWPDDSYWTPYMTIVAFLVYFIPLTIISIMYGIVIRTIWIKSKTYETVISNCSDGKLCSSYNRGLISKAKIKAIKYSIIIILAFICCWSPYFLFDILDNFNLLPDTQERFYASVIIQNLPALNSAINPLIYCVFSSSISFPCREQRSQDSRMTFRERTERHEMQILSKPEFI
Put plainly: Intracellular Ca ion concentration increasing activity using FLIPR. To be noted: variety of concentrations. On the procedure:
(§1) An enhancing activity of intracellular Ca^2+ release was assayed using FLIPR (Molecular Devices, Inc.). The CHO/TGR23-2 cells prepared in Example 1 and selected in Example 2 were plated on 96-well plate at 3×10^4 cells/well and cultured for 24 hours. A loading buffer was prepared by adding 1 vial of Fluo 3-AM to 10 ml of Hanks' solution (pH7.4) containing 2.5 mM Probenecid and 20 mM HEPES (hereafter, Hanks' solution (pH7.4) containing 2.5 mM Probenecid and 20 mM HEPES may be referred to as a washing buffer). The culture medium was discarded from the culture plate and 100 μl/well of the loading buffer were added to the cells. Then, the cells were incubated for 60 minutes in the incubator. After the loading buffer was removed from the culture plate and the cells were washed with the washing buffer, the plate was put in place of FLIPR. A sample was prepared by adding a sample buffer, which 2 mg/ml BSA and 1 mg/ml CHAPS were added to the washing buffer, to lyophilized product, stirring and treating by ultrasonication for 30 minutes, and transferred to 96-well sample plate. This sample plate was also put in place for assay. The enhancing activity of intracellular Ca^2+ release was measured as an increase of fluorescent intensity, which is raised by addition of the sample. Human TGR23-2 ligand (1-20) obtained in Example 17 was administered to TGR23-1 expressing CHO cells and TGR23-2 expressing CHO cells at a variety of concentrations according to the method described in Example 5, and the increasing activity of intracellular Ca ion concentration was determined using FLIPR. […] Rat TGR23-2 ligand (1-18) prepared by the method described in Example 19 and mouse TGR23-2 ligand (1-20) prepared by the method described in Example 20 were administered to TGR23-1 expressing CHO cells and TGR23-2 expressing CHO cells at a variety of concentrations according to the method described in Example 5, and the increasing activity of intracellular Ca ion concentration was determined using FLIPR.

Test [2] has as its target T2, TGR23-2 expressing CHO cells (Homo sapiens, UniProt Q6W5P4, N107I/Q344R).
T2 construct: the clones having the cDNA of TGR23-2, which is contained in pTB2174, were selected; expressed in transfected cells; host or cells: hamster CHO/dhfr- cells, vector pAKKO-111H (pAKKO-TGR23-2)
T2 sequence (Q6W5P4 1-371 N107I/Q344R): T1 sequence (Q6W5P4 1-371) with N107I, Q344R
Described as above. To be noted: variety of concentrations. On the procedure: as §1

The target in test [3] is T2, TGR23-2 expressing CHO cells. Put plainly: Enhancing activity of arachidonic acid metabolite release. The method, then:
The CHO/TGR23-2 cells prepared in Example 1 and selected in Example 2 were plated on 24-well plate at 5×10^4 cells/well and cultured for 24 hours. After removing the medium, αMEM medium (pH7.4) supplemented with 0.5 μCi/ml [^3H] arachidonic acid, 10% dialyzed FBS, 20 mM HEPES and 0.5% BSA was added to the cells at 500 μl/well. Subsequently, the cells were incubated for 16 hours in the incubator. After the culture medium containing [^3H] arachidonic acid was discarded, 500 μl/well of αMEM medium (pH7.4) supplemented with 20 mM HEPES and 0.5% BSA were added, and the cells were incubated for 4 hours in the incubator. […] Three milliliters of liquid scintilator were added to the supernatant described above to measure the radioactivity. Based on this measured value, a calculation was made using the following formula, and the promoting activity of arachidonic acid metabolite release was represented by % of control. The activity of the sample-adding group was calculated using a control value configured in each plate. % of control=[…]
X: The radioactivity in the sample-adding group
C: The means of the radioactivity in 4 wells of control (no sample) […]

Where a chain is given by its changes, count along the chain named. Where no end group is shown, it is not given here.

For “SFRNGVGTGMKKTSFQRAKS [human TGR23-2 ligand (1-20)]”, the “increase of intracellular Ca ion concentration” value in test [1] and in test [2] was “enhances an increase of intracellular Ca ion concentration” in each case. The “enhancing activity of arachidonic acid metabolite release” value in test [3] is “enhance the arachidonic acid metabolite release”.
Regarding “SFRNGVGSGVKKTSFRRA [rat TGR23-2 ligand (1-18), Ser-Phe-Arg-Asn-Gly-Val-Gly-Ser-Gly-Val-Lys-Lys-Thr-Ser-Phe-Arg-Arg-Ala]”, the “increase of intracellular Ca ion concentration” value in test [1] and in test [2] was “clearly enhance an increase of intracellular Ca ion concentration” each time. Also, in test [3], the “enhancing activity of arachidonic acid metabolite release” value was “enhance the arachidonic acid metabolite release”.
